Data: article PMC7377239, “Cardiovascular Effects of Polychlorinated Biphenyls and Their Major Metabolites” (Environmental Health Perspectives, 2020)
Where a name gives a salt, the structure may show the parent alone. Read-outs that look alike come from different tables or passages of the source.

Assays:
[1] = test system: iCell endothelial cells (human iPSC-derived ECs); test: Tube formation (tubulogenesis) assay in iCell endothelial cells, 18 h; format: cell-based; conditions: Homo sapiens, Endothelial cell, 18 hr; for activity at 0.1 µM: 0.10 µM
Method in brief: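 Tube formation was measured by calcein AM imaging after overnight compound exposure (37°C, 0.5% DMSO vehicle) of human iPSC-derived ECs, 7,500/well, on reduced-growth-factor Geltrex in starvation medium. Vehicle-normalized data fitted to four-parameter logistic; POD set at one vehicle SD; without response, 100 μM taken as NOAEL.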

HUVECs = test: High-content imaging cytotoxicity in HUVECs, 24 h; format: cell-based, human; conditions: Homo sapiens, HUVEC, 24 h; for viability at 0.01 µM / activity at 0.01 µM / viability at 0.1 µM / activity at 0.1 µM / viability at 1 µM / activity at 1 µM / viability at 10 µM / activity at 10 µM / viability at 100 µM / activity at 100 µM: 0.00 µM = 100.00; for viability at 0.1 µM / activity at 0.1 µM: 0.10 µM
Method in brief: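 Confluent HUVEC monolayers, passages 1–5, received test chemicals for 24 h. Cytotoxicity was scored from triple-stain high-content images, with PODs defined by a one-SD deviation from 0.5% DMSO vehicle controls.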

[2] = iPSC-EC tube formation, 0.00 µM control = 100.00, read-out: endo.mtl.18hr
[3] = iPSC-EC tube formation, 0.00 µM control = 100.00, read-out: endo.tlps.18hr
[4] = iPSC-EC tube formation, 0.00 µM control = 100.00, read-out: endo.tta.18hr
[5] = iPSC-EC tube formation, 0.00 µM control = 100.00, read-out: endo.ttl.18hr
[6] = HUVECs, 24 hr, read-out: huvec.cyto.24hr
[7] = HUVECs, 24 hr, read-out: huvec.mito.24hr
[8] = HUVECs, 24 hr, read-out: huvec.mitoint.24hr
[9] = HUVECs, 24 hr, read-out: huvec.nma.24hr
[10] = HUVECs, 24 hrs, read-out: huvec.tc.24hrs

Question: With `Oc1ccc(-c2cccc(Cl)c2)cc1Cl` [4-OH PCB11] as the compound, how does the activity at 0.01 µM [1, 2] read?
Answer: 108%

Question: What about the activity at 0.01 µM [1, 3] of the same compound?
Answer: 105%

Question: What about the activity at 0.01 µM [1, 4] of the same compound?
Answer: 164%

Question: And the activity at 0.01 µM [1, 5]?
Answer: 164%

Question: And the activity at 0.1 µM [1, 2]?
Answer: 111%

Question: What about the activity at 0.1 µM [1, 3] of the same compound?
Answer: 99.3%

Question: And the activity at 0.1 µM [1, 4]?
Answer: 131%

Question: And the activity at 0.1 µM [1, 5]?
Answer: 135%

Question: And the activity at 1 µM [1, 2]?
Answer: 106%

Question: And the activity at 1 µM [1, 3]?
Answer: 114%

Question: What about the activity at 1 µM [1, 4] of the same compound?
Answer: 144%

Question: And the activity at 1 µM [1, 5]?
Answer: 144%

Question: And the activity at 10 µM [1, 2]?
Answer: 95.5%

Question: And the activity at 10 µM [1, 3]?
Answer: 119%

Question: And the activity at 10 µM [1, 4]?
Answer: 87.6%

Question: And the activity at 10 µM [1, 5]?
Answer: 85.5%

Question: And the activity at 100 µM [1, 2]?
Answer: 52.6%

Question: What about the activity at 100 µM [1, 3] of the same compound?
Answer: 14.8%

Question: What about the activity at 100 µM [1, 4] of the same compound?
Answer: 9.99%

Question: What about the activity at 100 µM [1, 5] of the same compound?
Answer: 11.5%

Question: And the minimal effective concentration ([1]; iPSC-EC tube formation, top concentration 100.00 µM, read-out: endo.mtl.18hr POD)?
Answer: 17.7 µM

Question: What about the minimal effective concentration ([1]; iPSC-EC tube formation, top concentration 100.00 µM, read-out: endo.tlps.18hr POD) of the same compound?
Answer: 52.5 µM

Question: And the minimal effective concentration ([1]; iPSC-EC tube formation, top concentration 100.00 µM, read-out: endo.tta.18hr POD)?
Answer: 15.8 µM

Question: And the minimal effective concentration ([1]; iPSC-EC tube formation, top concentration 100.00 µM, read-out: endo.ttl.18hr POD)?
Answer: 16.1 µM

Question: What about the viability at 0.01 µM (HUVECs; [6]) of the same compound?
Answer: 113%

Question: What about the activity at 0.01 µM (HUVECs; [7]) of the same compound?
Answer: 112%

Question: What about the activity at 0.01 µM (HUVECs; [8]) of the same compound?
Answer: 86.8%

Question: What about the activity at 0.01 µM (HUVECs; [9]) of the same compound?
Answer: 95.3%

Question: What about the viability at 0.1 µM (HUVECs; [6]) of the same compound?
Answer: 87.7%

Question: And the activity at 0.1 µM (HUVECs; [7])?
Answer: 86.9%

Question: And the activity at 0.1 µM (HUVECs; [8])?
Answer: 109%

Question: What about the activity at 0.1 µM (HUVECs; [9]) of the same compound?
Answer: 105%

Question: What about the viability at 1 µM (HUVECs; [6]) of the same compound?
Answer: 97%

Question: What about the activity at 1 µM (HUVECs; [7]) of the same compound?
Answer: 96.1%

Question: What about the activity at 1 µM (HUVECs; [8]) of the same compound?
Answer: 101%

Question: And the activity at 1 µM (HUVECs; [9])?
Answer: 97.1%

Question: What about the viability at 10 µM (HUVECs; [6]) of the same compound?
Answer: 43.8%

Question: What about the activity at 10 µM (HUVECs; [7]) of the same compound?
Answer: 26.1%

Question: And the activity at 10 µM (HUVECs; [8])?
Answer: 10.9%

Question: And the activity at 10 µM (HUVECs; [9])?
Answer: 69.2%

Question: And the viability at 100 µM (HUVECs; [6])?
Answer: 34.6%

Question: And the activity at 100 µM (HUVECs; [7])?
Answer: 0.26%

Question: And the activity at 100 µM (HUVECs; [8])?
Answer: 2.7%

Question: What about the activity at 100 µM (HUVECs; [9]) of the same compound?
Answer: 73.6%

Question: And the minimal effective concentration (HUVECs; HUVECs, 24 hr, top concentration 100.00 µM, read-out: huvec.cyto.24hr POD)?
Answer: 1.37 µM

Question: And the minimal effective concentration (HUVECs; HUVECs, 24 hr, top concentration 100.00 µM, read-out: huvec.mito.24hr POD)?
Answer: 1.2 µM

Question: What about the minimal effective concentration (HUVECs; HUVECs, 24 hr, top concentration 100.00 µM, read-out: huvec.mitoint.24hr POD) of the same compound?
Answer: 5.43 µM

Question: And the minimal effective concentration (HUVECs; HUVECs, 24 hr, top concentration 100.00 µM, read-out: huvec.nma.24hr POD)?
Answer: 0.99 µM

Question: What about the viability at 0.01 µM (HUVECs; [10]) of the same compound?
Answer: 113%

Question: And the viability at 0.1 µM (HUVECs; [10])?
Answer: 87.7%

Question: What about the viability at 1 µM (HUVECs; [10]) of the same compound?
Answer: 97%

Question: What about the viability at 10 µM (HUVECs; [10]) of the same compound?
Answer: 44.1%

Question: And the viability at 100 µM (HUVECs; [10])?
Answer: 36.5%

Question: And the minimal effective concentration (HUVECs; HUVECs, 24 hrs, top concentration 100.00 µM, read-out: huvec.tc.24hrs POD)?
Answer: 1.37 µM

Question: With `O=S(=O)(O)Oc1cc(-c2ccccc2)ccc1Cl` [3-PCB 3 sulfate] as the compound, how does the minimal effective concentration ([1]; endothelial cells (endo), tube formation mtl, read-out: POD endo.mtl.18hr) read?
Answer: 100 µM

Question: And the minimal effective concentration ([1]; endothelial cells (endo), tube formation tlps, read-out: POD endo.tlps.18hr)?
Answer: 6.75 µM

Question: What about the minimal effective concentration ([1]; endothelial cells (endo), tube formation tta, read-out: POD endo.tta.18hr) of the same compound?
Answer: 100 µM

Question: What about the minimal effective concentration ([1]; endothelial cells (endo), tube formation ttl, read-out: POD endo.ttl.18hr) of the same compound?
Answer: 100 µM

Question: And the minimal effective concentration (HUVECs; cyto, 24 hr, read-out: POD huvec.cyto.24hr)?
Answer: 100 µM

Question: And the minimal effective concentration (HUVECs; mito, 24 hr, read-out: POD huvec.mito.24hr)?
Answer: 100 µM

Question: And the minimal effective concentration (HUVECs; mitoint, 24 hr, read-out: POD huvec.mitoint.24hr)?
Answer: 100 µM

Question: And the minimal effective concentration (HUVECs; nma, 24 hr, read-out: POD huvec.nma.24hr)?
Answer: 100 µM

Question: And the minimal effective concentration (HUVECs; tc, 24 hr, read-out: POD huvec.tc.24hr)?
Answer: 100 µM
